In ChEMBL document CHEMBL5335812, “PSMA-targeted SMART molecules outfitted with SN38” (Bioorg Med Chem Lett, 2024):
Values belong to the compound of their own block, whether it stands above or below them. Calls of active or inactive are those of the source. No cut-off for these calls is given here.

Columns and labels:
[1] = Stability of the compound at pH 7.4; format: physicochemical; settings: buffer
[2] = Stability of the compound assessed as kinetic half life at pH 6; format: physicochemical; settings: buffer
[3] = Stability of the compound assessed as kinetic half life at pH 5.5; format: physicochemical; settings: buffer
[4] = Stability of the compound assessed as kinetic half life at pH 4.5; format: physicochemical; settings: buffer
[5] = Stability of the compound assessed as kinetic half life at pH 5; format: physicochemical; settings: buffer
[6] = Stability of the compound assessed as hydrolysis at pH 7.4 measured after 8 hrs by 31P NMR; format: physicochemical; settings: buffer, pH 7.4, 8 h
[7] = Stability of the compound assessed as payload release at pH 5.5 measured after 18 hrs by fluorescence based analysis; format: physicochemical; settings: buffer, pH 5.5, 18 h
[8] = Stability of the compound assessed as payload release at pH 7.4 measured after 18 hrs by fluorescence based analysis; format: physicochemical; settings: buffer, pH 7.4, 18 h
[9] = Stability of the compound assessed as payload release at pH 5.0 measured after 18 hrs by fluorescence based analysis; format: physicochemical; settings: buffer, pH 5, 18 h
PC-3 = experiment: Antiproliferative activity against human PC-3 cells with PSMA knockout assessed as reduction in cell viability incubated for 72 hrs by cellTiter-Glo Luminescent cell viability assay; format: functional, cell-based
[10] = Drug metabolism in human C4-2B cells expressing PSMA assessed as payload release incubated for 30 min by confocal microscopy; format: ADME, cell-based; settings: lncap c4-2b, 0.5 h
LNCaP C4-2B = experiment: Antiproliferative activity against human C4-2B cells expressing PSMA assessed as reduction in cell viability incubated for 72 hrs by cellTiter-Glo Luminescent cell viability assay
[11] = Drug metabolism in human PC-3 cells with PSMA knockout assessed as intracellular SN38 release incubated for 30 min by confocal microscopy; format: ADME, cell-based; settings: pc-3, 0.5 h

SMILES: CCc1c2c(nc3ccc(OC(=O)N(C)CCN(C)P(=O)(O)OCC[C@H](NC(=O)c4ccc(CN=[N+]=[N-])cc4)C(=O)O)cc13)-c1cc3c(c(=O)n1C2)COC(=O)[C@]3(O)CC
Stability [1]: Stable | half-life [2]: 42 h | half-life [3]: 11 h | half-life [4]: 1.9 h | half-life [5]: 4.3 h | Stability [6]: Stable

Activity [7]: ~ 25% | Stability [8]: Stable | Activity [9]: 25%
SMILES: CCc1c2c(nc3ccc(O)cc13)-c1cc3c(c(=O)n1C2)COC(=O)[C@]3(O)CC [7-ETHYL-10-HYDROXYCAMPTOTHECIN]

SMILES: CCc1c2c(nc3ccc(OC(=O)N(C)CCN(C)P(=O)(O)OCC[C@H](NC(=O)c4ccc(Cn5nnc6c5-c5ccccc5CN(C(=O)CCC(=O)NCCOCCOCCOCCOCCC(=O)NCCCCCC(=O)N[C@@H](CCC(=O)N[C@@H](CCCOP(=O)(O)N[C@@H](CCC(=O)O)C(=O)O)C(=O)O)C(=O)O)c5ccccc5-6)cc4)C(=O)O)cc13)-c1cc3c(c(=O)n1C2)COC(=O)[C@]3(O)CC
Activity (PC-3): inactive | Drug metabolism [10]: Metabolite_Detected | IC50 (LNCaP C4-2B): 3 nM | Drug metabolism [11]: Metabolite_Notdetected
